Results on twelve molecules are retold here after EP4725956A1, “MODIFIED POLYPEPTIDE AND USE THEREOF IN FIELD OF ANALGESIA” (Nanjing Anji Biotechnology Co., Ltd., priority 2023, dated 2024).

pKd: −log10 of the molar value. Positions of bridges follow the written chain, without caps; N, C: chain ends. Non-standard residues stand in square brackets, D forms with d. Residues, ends and D or L forms follow the SMILES beside them. Bip = N[C@@H](Cc1ccc(-c2ccccc2)cc1)C(=O)O; Hyp = O=C(O)[C@@H]1C[C@@H](O)CN1; Nle = CCCC[C@H](N)C(=O)O; Orn = NCCC[C@H](N)C(=O)O; Abu = CC[C@H](N)C(=O)O; Sar = CNCC(=O)O

In one data set the target is α7 nAChR (Homo sapiens, UniProt P36544). The experiment in a line: BLI (biolayer interferometry) affinity of peptides to α7 nAChR. Format: binding. Also on record: inferred from the 'similar' procedure on NTA sensors. The following applies: NTA sensor, α7 nAChR 20 µg/mL, peptide 1.372-1000 nM in PBS. From the text:
BLI is a label-free technology that converts optical interference signals occurring on the surface of BLI biosensors into real-time response signals. By monitoring the molecular binding process in real time, the system determines association rate constants (ka or kon), dissociation rate constants (kd or koff), and initial binding rates, and calculates affinity (KD) by fitting analysis. Here are the specific procedures: NTA sensors (Sartorius) were placed in a pre-wetting tray, which was then positioned in a black 96-well plate with 200 µL PBS per well. The NTA sensors were pre-wetted for at least 15 minutes. The target protein α9 nAChR was diluted in PBS to 5 µg/mL, with 200 µL added per well. Test peptides were dissolved in PBS and serially diluted threefold, with concentrations from high to low as 1000 nM, 333.3 nM, 111.1 nM, 37.04 nM, 12.35 nM, 4.115 nM, and 1.372 nM, with an additional well with PBS only as a zeroconcentration control. After equilibrating the instrument baseline, the NTA sensor was used to immobilize the target protein α9 nAChR. Once immobilization was complete, the baseline was re-equilibrated, followed by a 5-minute association and a 5-minute dissociation phase. Affinity measurements of the test peptides were conducted sequentially using the above procedure. The procedure for measuring peptide affinity to α7 nAChR was similar, except that the α7 nAChR concentration was 20 µg/mL. Tables 2 and 3 show the BLI-determined affinities of alanine-scan peptide analogs with target proteins, which identified sites on the parent peptide suitable for modification. Subsequently, single-site non-natural amino acid substituted peptides were evaluated by BLI for target protein affinity. Finally, multi-site combinatorial modified peptides were measured for affinity by BLI, leading to the selection of high-affinity peptides for further screen and drug development potential. Table 2 Test Results for Affinity of Modified Peptides to α9 nAChR
Background: BLI is a label-free optical method that tracks binding on a fibre tip over time.

Data set [1] in a line: In vitro plasma stability and predicted half-life (HPLC main peak area, Example 3). Format: in vitro ADME. The following applies: human plasma (EDTA anticoagulant), 37°C, sampled up to 24 h, predicted half-life calculated with Winolin. The protocol:
The modified peptides in this study were designed with non-natural amino acid substitutions at certain non-essential positions to enhance peptide stability and improve druggability. Peptides were dissolved in deionized water to 2 mg/mL, then diluted with acetonitrile to 1 mg/mL and filtered through an organic membrane. 200 µL of the filtrate was transferred to an LC vial as the peptide control. 300 µL of human plasma (comprising EDTA as anticoagulant, Nanjing Senbeijia Biotechnology Co., Ltd., Lot No. SBJ-P-HU011-100 mL) was mixed with 300 µL acetonitrile, centrifuged at 4°C and 12,000 rpm for 5 minutes. The supernatant was filtered through an organic membrane, and 200 µL of the filtrate was transferred to an LC vial as the plasma blank control. For peptide samples, 10 mg of peptide was weighed mixed with 5 mL of human plasma and vortexed thoroughly. 300 µL of peptide-containing plasma was mixed with 300 µL acetonitrile, centrifuged at 4°C and 12,000 rpm for 5 minutes, and the supernatant was filtered through an organic membrane. 200 µL of the filtrate was transferred to an LC vial as the 0 min sample. Peptide-containing plasma was incubated in a 37°C water bath, and samples at other time points were collected using the same procedure as the 0 min sample. For peptides AJ003 and AJ003-1, the sampling time points were 0 min, 5 min, 10 min, 20 min, 30 min, 1 h, 2 h, 4 h, 6 h, 10 h, 12 h, and 24 h. For modified peptides AJ003-34, AJ003-35, AJ003-36, AJ003-37, AJ003-38, AJ003-39, AJ003-40, AJ003-41, and AJ003-42, the time points were 0 min, 10 min, 30 min, 1 h, 4 h, 6 h, 10 h, 12 h, and 24 h. All peptide sample series were analyzed by HPLC, recording the changes in main peak areas over plasma incubation time. Predicted in vitro half-lives were calculated using the pharmacokinetic software Winolin. Due to the presence of tautomers, AJ003 peak areas were difficult to integrate accurately over time. AJ003-1 is an analog of AJ003 in which the threonine at position 5 is substituted with D-threonine; its sequence differs from AJ003 by only one amino acid configuration. […] The in vitro plasma half-lives of modified peptides AJ003-34, AJ003-35, AJ003-36, AJ003-37, AJ003-38, AJ003-39, AJ003-40, AJ003-41, and AJ003-42 were 61.9 h, 45.3 h, 65.3 h, 71.0 h, 26.7 h, 43.0 h, 84.0 h, 30.0 h, and 61.4 h, respectively.

The term pKd denotes the negative decadic logarithm of the Kd, by convention in mol/L. Read a low pKd as a large Kd. As to `CCCC[C@H](NC(=O)[C@@H](NC(=O)[C@H]1CSSC[C@H](NC(=O)[C@H](CO)NC(=O)CN)C(=O)N[C@@H](CO)C(=O)N[C@H]([C@H](C)O)C(=O)N2CCC[C@H]2C(=O)N2CCC[C@H]2C(=O)N[C@@H](CO)C(=O)N1)C(C)C)C(=O)N[C@@H](Cc1ccc(O)cc1)C(=O)N[C@@H](CO)C(=O)O` [AJ003-29, GSCS-(D-Thr)-PPS-(D-Cys)-V-Nle-YS (3,9 disulfide bond)] (H-GSCS[dT]PPS[dC]V[Nle]YS-OH; disulfide 3-9), on α7 nAChR, the pKd was 6.17.
On the same count and under the same terms, in the case of `CC(C)C[C@H](NC(=O)[C@@H](NC(=O)[C@H]1CSSC[C@@H](NC(=O)[C@H](CO)NC(=O)CN)C(=O)N[C@@H](CO)C(=O)N[C@H]([C@H](C)O)C(=O)N2CCC[C@H]2C(=O)N2CCC[C@H]2C(=O)N[C@@H](CO)C(=O)N1)C(C)C)C(=O)N[C@@H](Cc1ccc(O)cc1)C(=O)N[C@@H](CO)C(=O)O` [AJ003-5, GS-(D-Cys)-S-(D-Thr)-PPS-(D-Cys)-VLYS (3,9 disulfide bond)] (H-GS[dC]S[dT]PPS[dC]VLYS-OH; disulfide 3-9) it was 6.40.
The term half-life denotes the time needed for the level to fall by half in the phase considered. Consider `CCCC[C@H](NC(=O)[C@@H](NC(=O)[C@H]1CSSC[C@H](NC(=O)[C@H](CO)NC(=O)CN)C(=O)N[C@@H](CO)C(=O)N[C@H]([C@H](C)O)C(=O)N2C[C@H](O)C[C@H]2C(=O)N2C[C@H](O)C[C@H]2C(=O)N[C@@H](C)C(=O)N1)C(C)C)C(=O)N[C@@H](Cc1c[nH]c2ccccc12)C(=O)N[C@@H](CCCN)C(N)=O` [AJ003-41, GSCS-(D-Thr)-Hyp-Hyp-A-(D-Cys)-V-Nle-W-Orn-NH2 (3,9 disulfide bond)] (H-GSCS[dT][Hyp][Hyp]A[dC]V[Nle]W[Orn]-NH2; disulfide 3-9), for which the half-life at 2 mg/mL in data set [1] is 30 h. On α7 nAChR, this molecule showed a pKd of 6.96.
On α7 nAChR, `CC(C)C[C@@H](NC(=O)[C@H](NC(=O)[C@H]1CSSC[C@@H](NC(=O)[C@@H](CO)NC(=O)CN)C(=O)N[C@H](CO)C(=O)N[C@H]([C@H](C)O)C(=O)N2CCC[C@@H]2C(=O)N2CCC[C@@H]2C(=O)N[C@H](CO)C(=O)N1)C(C)C)C(=O)N[C@H](Cc1ccc(O)cc1)C(=O)N[C@H](CO)C(=O)O` [AJ003-6] (H-G[dS][dC][dS][dT][dP][dP][dS][dC][dV][dL][dY][dS]-OH; disulfide 3-9) showed a negative-log Kd (pKd) of 6.27.
`CC(C)C[C@H](NC(=O)[C@@H](NC(=O)[C@H]1CSSC[C@H](NC(=O)[C@H](CO)NC(=O)CN)C(=O)N[C@@H](CO)C(=O)N[C@H]([C@H](C)O)C(=O)N2CCC[C@H]2C(=O)N2CCC[C@H]2C(=O)N[C@@H](CO)C(=O)N1)C(C)C)C(=O)N[C@@H](Cc1ccc(O)cc1)C(=O)N[C@@H](CCCN)C(N)=O` [AJ003-33, GSCS-(D-Thr)-PPS-(D-Cys)-VLY-Orn-NH2 (3,9 disulfide bond)] (H-GSCS[dT]PPS[dC]VLY[Orn]-NH2; disulfide 3-9) showed a negative logarithm of the Kd (pKd) at α7 nAChR of 6.40.
For the molecule `CCCC[C@H](NC(=O)[C@@H](NC(=O)[C@H]1CSSC[C@H](NC(=O)[C@H](CO)NC(=O)CN)C(=O)N[C@@H](CO)C(=O)N[C@H]([C@H](C)O)C(=O)N2C[C@H](O)C[C@H]2C(=O)N2C[C@H](O)C[C@H]2C(=O)N[C@@H](C)C(=O)N1)C(C)C)C(=O)N[C@@H](Cc1ccccc1)C(=O)N[C@@H](CCCN)C(N)=O` [AJ003-38, GSCS-(D-Thr)-Hyp-Hyp-A-(D-Cys)-V-Nle-F-Orn-NH2 (3,9 disulfide bond)] (H-GSCS[dT][Hyp][Hyp]A[dC]V[Nle]F[Orn]-NH2; disulfide 3-9), the half-life at 2 mg/mL in data set [1] was 26.7 h. This molecule had a pKd at α7 nAChR of 6.73.
As for `CCCC[C@H](NC(=O)[C@@H](NC(=O)[C@H]1CSSC[C@H](NC(=O)[C@H](CO)NC(=O)CN)C(=O)N[C@@H](CO)C(=O)N[C@H]([C@H](C)O)C(=O)N2C[C@H](O)C[C@H]2C(=O)N2C[C@H](O)C[C@H]2C(=O)N[C@@H](C)C(=O)N1)C(C)C)C(=O)N[C@@H](Cc1ccc(-c2ccccc2)cc1)C(=O)N[C@@H](CCCN)C(N)=O` [AJ003-35, GSCS-(D-Thr)-Hyp-Hyp-A-(D-Cys)-V-Nle-Bip-Orn-NH2 (3,9 disulfide bond)] (H-GSCS[dT][Hyp][Hyp]A[dC]V[Nle][Bip][Orn]-NH2; disulfide 3-9), in data set [1], the half-life at 2 mg/mL is 45.3 h. Further, the pKd at α7 nAChR was 6.85.
Turning to `CC(C)C[C@H](NC(=O)[C@@H](NC(=O)[C@H]1CSSC[C@H](NC(=O)[C@H](CO)NC(=O)CN)C(=O)N[C@@H](CO)C(=O)N[C@H]([C@H](C)O)C(=O)N2CCC[C@H]2C(=O)N2CCC[C@H]2C(=O)N[C@@H](CO)C(=O)N1)C(C)C)C(=O)N[C@@H](Cc1ccc(O)cc1)C(=O)N[C@@H](CO)C(=O)O` [AJ003-1, GSCS-(D-Thr)-PPS-(D-Cys)-VLYS (3,9 disulfide bond)] (H-GSCS[dT]PPS[dC]VLYS-OH; disulfide 3-9), the half-life at 2 mg/mL in data set [1] was roughly 10.8 h.
Molecule `CC[C@H](NC(=O)[C@@H](NC(=O)[C@H]1CSSC[C@H](NC(=O)[C@H](CO)NC(=O)CN)C(=O)N[C@@H](CO)C(=O)N[C@H]([C@H](C)O)C(=O)N2CCC[C@H]2C(=O)N2CCC[C@H]2C(=O)N[C@@H](CO)C(=O)N1)C(C)C)C(=O)N[C@@H](Cc1ccc(O)cc1)C(=O)N[C@@H](CO)C(=O)O` [AJ003-28, GSCS-(D-Thr)-PPS-(D-Cys)-V-ABu-YS (3,9 disulfide bond)] (H-GSCS[dT]PPS[dC]V[Abu]YS-OH; disulfide 3-9) gave a pKd on α7 nAChR of 6.16.
At α7 nAChR, `CC(C)C[C@H](NC(=O)[C@@H](NC(=O)[C@H]1CSSC[C@H](NC(=O)[C@H](CO)NC(=O)CN)C(=O)N[C@@H](CO)C(=O)N[C@H]([C@H](C)O)C(=O)N2CCC[C@H]2C(=O)N2CCC[C@H]2C(=O)N[C@@H](CO)C(=O)N1)C(C)C)C(=O)N[C@@H](Cc1ccc(-c2ccccc2)cc1)C(=O)N[C@@H](CO)C(=O)O` [AJ003-32, GSCS-(D-Thr)-PPS-(D-Cys)-VL-Bip-S (3,9 disulfide bond)] (H-GSCS[dT]PPS[dC]VL[Bip]S-OH; disulfide 3-9) gave a pKd of 6.43.
`CC(C)C[C@H](NC(=O)[C@@H](NC(=O)[C@H]1CSSC[C@H](NC(=O)[C@H](CO)NC(=O)CN)C(=O)N[C@@H](CO)C(=O)N[C@H]([C@H](C)O)C(=O)N2CCC[C@H]2C(=O)N2CCC[C@H]2C(=O)N[C@@H](CO)C(=O)N1)C(C)C)C(=O)N[C@@H](Cc1ccc(O)cc1)C(=O)N[C@@H](CO)C(N)=O` [AJ003-4, GSCS-(D-Thr)-PPS-(D-Cys)-VLYS-NH2 (3,9 disulfide bond)] (H-GSCS[dT]PPS[dC]VLYS-NH2; disulfide 3-9) showed a pKd on α7 nAChR of 6.47.
Turning to `CNCC(=O)N[C@@H](CO)C(=O)N[C@H]1CSSC[C@H](C(=O)N[C@H](C(=O)N[C@@H](CC(C)C)C(=O)N[C@@H](Cc2ccc(O)cc2)C(=O)N[C@@H](CO)C(=O)O)C(C)C)NC(=O)[C@H](CO)NC(=O)[C@@H]2CCCN2C(=O)[C@@H]2CCCN2C(=O)[C@@H]([C@H](C)O)NC(=O)[C@H](CO)NC1=O` [AJ003-8, Sar-SCS-(D-Thr)-PPS-(D-Cys)-VLYS (3,9 disulfide bond)] (H-[Sar]SCS[dT]PPS[dC]VLYS-OH; disulfide 3-9), the pKd on α7 nAChR is 5.19.
